According to patent US20200291082A1, “PREVENTION AND TREATMENT OF GRAFT-VERSUS-HOST-DISEASE WITH DEFENSINS” (priority 2017, published 2020):
No end group written: not given here.

Columns and labels:
[1] = test system: microbiota in diet-induced obese mice; test: interventional treatment of dysbiosis with defensins in diet-induced obese mice (Example 8); format: in vivo
Source text: Mice and diets. The experiment elucidates the effect of hBD2 and HD5 on the microbiota in diet-induced obese mice. A run-in period of 13 weeks where mice were fed a very HFD (60% energy from fat) preceded the intervention. Only mice meeting the criteria of a minimum of 12 gram weight gain (approximately 50% of initial bodyweight) during the run-in period were included in the final analyses. […] They were exposed to all experimental tests, but excluded from the analyses.
Treatment regimen. Before the intervention all mice were MR scanned. Cages of mice were allocated to experimental groups based on their fat mass. All subsequent measures were paired with data from the same mouse before the intervention. A LFD (low fat diet) reference group was running in parallel. As controls for the intervention 2 additional groups were included: 1 very HFD and 1 LFD. Experimental mice stayed on the very HFD during the intervention (FIG. 3). The mice were on the experimental diet for 10 weeks. They were co-housed throughout the experiment, 4 mice per cage, 3 cages per group. All tests ran over 3 days, 1 cage per group per day.
Tests. Microbial analyses were carried out to study the microbiota of the intestine.
Longitudinal 16S characterization was conducted on 4 paired samples from 60 mice, 240 samples in total. Each mouse was sampled prior to diet change, 1 week post diet change, 4 weeks post diet change and at termination, thus ensuring a thorough characterization of the faecal microbiota as a result of defensin treatment.

[2] = test system: bacteria at the surface of the intestinal mucosa; test: anti microbial effect of orally administered defensins, mucin immunostaining and localization of bacteria by FISH (Example 16); format: in vivo; conditions: compared with mice on low fat or western diet
Procedure: Anti microbial effect of orally administered defensins (HD5 and hBD-2).
Mucus immunostaining was paired with fluorescent in situ hybridization (FISH), as previously described in order to analyze bacteria localization at the surface of the intestinal mucosa. Briefly, colonic tissues (proximal colon, 2nd cm from the cecum) without fecal material were placed in methanol-Carnoy's fixative solution (60% methanol, 30% chloroform, 10% glacial acetic acid) for a minimum of 3 hours at room temperature. Tissues were then washed in methanol 2×30 min, ethanol 2×15 min, ethanol/xylene (1:1), 15 min and xylene 2×15 min, followed by embedding in Paraffin with a vertical orientation. Five pm sections were performed and dewax by preheating at 60° C. for 10 min, followed by xylene 60° C. for 10 min, xylene for 10 min and 99.5% ethanol for 10 minutes. Hybridization step was performed at 50° C. overnight with EUB338 probe (5′-GCTGCCTCCCGTAGGAGT-3′, with a 5′ labeling using Alexa 647) diluted to a final concentration of 10 μg/mL in hybridization buffer (20 mM Tris-HCl, pH 7.4, 0.9 M NaCl, 0.1% SDS, 20% formamide). After washing 10 min in wash buffer (20 mM Tris-HCl, pH 7.4, 0.9 M NaCl) and 3×10 min in PBS, PAP pen (Sigma-Aldrich) was used to mark around the section and block solution (5% fetal bovine serum in PBS) was added for 30 min at 4° C. […]

[3] = test system: house dust mite model of allergic asthma; test: therapeutic intranasal versus oral hBD2 in murine house dust mite model of allergic asthma, lung histopathology and cytokines (Example 11); format: in vivo, BALB/c mice
Procedure: To determine and assess the efficacy of IN versus oral therapeutic intervention with administration of defensins in a murine house dust mite model of allergic asthma.
Treatment regime: Female 7-10 weeks old BALB/c mice randomly allocated into 4 study groups one day prior to study start were subcutaneously (SC) sensitized to house dust mite (100 μg HDM in 200 μL saline plus Freund's complete adjuvant in 0.9% saline). Mice were intranasally (IN) challenged with HDM on day 14 (HDM 25 μg in 50 μL of saline). hBD2 was administered IN or orally (0.4 mg/kg TID IN; 0.4 mg/kg TID orally, 50 μL phosphate buffered saline) on day 14. The initial dose was administered 60 minutes prior to challenge, and the subsequent doses approximately 6 hours apart.
Lung tissue sampling: Lungs were removed from the thorax, snap frozen in liquid nitrogen and stored frozen at −80 degrees Celsius until analysis of cytokine concentration of IL-4, IL-5, IL-8 (KC), IL-9 and IL-13 in lung homogenate by ELISA. Lungs were inflated in situ in 10% buffered formalin, removed from thorax, placed individually in 10% buffered formalin, paraffin embedded in toto, sectioned and H&E/PAS stained.
Blood sampling: All terminal blood samples were collected via jugular vein bleeds. Blood was sampled to Li-heparin tubes, put on ice and immediately centrifuged at 4° C. Plasma was separated and stored at -80° C. until the potential SCFA analysis. Lung tissue sampling: The lungs were exposed and excised by gently opening the thorax and by cutting down either side of the sternum and ribs and trimming back. Lungs from the first 6 animals per group were removed from thorax, snap frozen in liquid nitrogen and stored frozen at −80° C. until analysis of cytokine concentration by ELISA.
Lungs from the other 8 animals per group were inflated in situ with 10% buffered formalin, removed from thorax, placed individually in 10% buffered formalin, paraffin embedded in toto, sectioned and H&E/PAS stained. The paraffin blocks were retained for the IHC analysis.
Read-Outs • Histopathology (H&E; PAS) (N=8/group; total N=32) • Cytokines in lung tissue homogenates (IL-4, IL-5, IL-8 (KC), IL-9 and IL-13) (N=6/group; total N=24)
Cellular influx (mononuclears, eosinophils, neutrophils) was assessed semi-quantitatively on H&E stained slides separately for peri-bronchial/bronchiolar and perivascular space as follows: • 0 absent • 1 few scattered inflammatory cells • 2 larger aggregates • 3 marked accumulation of cells
Overall score for inflammation was calculated as the sum of all individual scores.

human beta defensin 2 (GIGDPVTCLKSGAICHPVFCPRRYKQIGTCGLPGTKCCKKP; not fully specified (bridges); ends and bridges not checked; listed as Homo sapiens) [hBD2]
weight gain ([1]; HFD plus hBD2, first 4 weeks post dietary intervention, versus standard HFD): tended to gain less weight
weight gain ([1]; HFD plus hBD2, week 4 to end of study period): gained similar weight as the standard HFD group
abundance of Alloprevotella ([1]; colon): no influence on Alloprevotella abundance
relative abundance of Bifidobacteriaceae ([1]; colon): dramatically and statistically significant increased
relative abundance of Bifidobacteriaceae ([1]; small intestine): dramatically and statistically significant increased
lysis zone, distance between intestinal wall and bacterial population [2]: profound effect on the distance
IL-9 level in lung tissue homogenates ([3]; IN administration): Significant effects
IL-13 level in lung tissue homogenates ([3]; IN administration): Significant effects
histological inflammation of lung tissue ([3]; hBD2 both oral and intranasal 0.4 mg/kg TID on day 14, versus HDM challenged vehicle): effectively inhibited the increase in histological inflammation of lung tissue
IL-4 level in lung tissue homogenates ([3]; oral administration): Significant effects
IL-9 level in lung tissue homogenates ([3]; oral administration): Significant effects
IL-13 level in lung tissue homogenates ([3]; oral administration): Significant effects
